Assay [1] deals with T1, Alpha-2A adrenergic receptor (Homo sapiens, UniProt P08913).
T1 sequence (P08913 whole entry): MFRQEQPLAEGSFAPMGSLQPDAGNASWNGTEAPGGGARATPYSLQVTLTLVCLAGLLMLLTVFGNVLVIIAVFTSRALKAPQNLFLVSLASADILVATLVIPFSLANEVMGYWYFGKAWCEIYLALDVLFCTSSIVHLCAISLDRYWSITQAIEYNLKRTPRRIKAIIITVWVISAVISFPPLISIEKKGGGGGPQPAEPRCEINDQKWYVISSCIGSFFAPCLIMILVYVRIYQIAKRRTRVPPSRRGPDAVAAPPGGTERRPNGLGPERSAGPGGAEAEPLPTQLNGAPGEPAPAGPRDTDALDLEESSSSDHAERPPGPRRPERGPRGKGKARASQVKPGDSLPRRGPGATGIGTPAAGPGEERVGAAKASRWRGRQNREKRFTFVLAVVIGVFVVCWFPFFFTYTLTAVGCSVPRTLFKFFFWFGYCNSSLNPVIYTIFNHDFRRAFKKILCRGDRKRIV
It counts as functional, cell-based.

In assay [2] the target is Beta-1 adrenergic receptor (Homo sapiens, UniProt P08588). It is filed as functional.
Beta-1 adrenergic receptor, sequence (P08588 whole entry): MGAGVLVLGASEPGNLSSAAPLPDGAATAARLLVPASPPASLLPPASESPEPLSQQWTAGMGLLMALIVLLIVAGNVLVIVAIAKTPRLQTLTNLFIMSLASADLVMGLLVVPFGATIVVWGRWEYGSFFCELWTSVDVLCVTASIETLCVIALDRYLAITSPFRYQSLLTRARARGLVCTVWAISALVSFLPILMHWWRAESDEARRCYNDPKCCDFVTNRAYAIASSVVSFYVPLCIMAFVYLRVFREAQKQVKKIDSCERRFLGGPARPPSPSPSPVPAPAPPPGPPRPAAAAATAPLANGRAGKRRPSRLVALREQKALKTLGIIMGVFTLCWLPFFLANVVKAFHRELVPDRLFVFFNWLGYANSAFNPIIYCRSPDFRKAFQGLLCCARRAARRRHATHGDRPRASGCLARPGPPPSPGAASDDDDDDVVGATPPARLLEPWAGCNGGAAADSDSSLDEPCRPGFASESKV
The next assay concerns the target Vasopressin V2 receptor (Homo sapiens, UniProt P30518).
Assay [3] concerns the target T2, Muscarinic acetylcholine receptor M2 (Homo sapiens, UniProt P08172).
T2 sequence (P08172 whole entry): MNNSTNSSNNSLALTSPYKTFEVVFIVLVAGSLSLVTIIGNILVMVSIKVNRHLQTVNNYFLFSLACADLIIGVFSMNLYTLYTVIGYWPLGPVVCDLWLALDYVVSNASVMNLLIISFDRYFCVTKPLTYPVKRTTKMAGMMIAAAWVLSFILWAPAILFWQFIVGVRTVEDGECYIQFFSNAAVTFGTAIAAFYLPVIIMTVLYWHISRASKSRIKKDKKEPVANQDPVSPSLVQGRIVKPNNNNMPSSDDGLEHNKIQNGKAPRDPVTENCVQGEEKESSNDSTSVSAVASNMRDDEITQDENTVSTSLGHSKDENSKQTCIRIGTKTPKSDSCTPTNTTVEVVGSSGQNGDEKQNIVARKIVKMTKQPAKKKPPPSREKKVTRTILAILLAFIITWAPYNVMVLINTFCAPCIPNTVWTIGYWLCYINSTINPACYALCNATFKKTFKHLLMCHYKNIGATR
It counts as functional, cell-based.

Assay [4] has as its target Growth hormone secretagogue receptor type 1 (Homo sapiens, UniProt Q92847).
Assay [5] addresses T3, 5-hydroxytryptamine receptor 1A (Homo sapiens, UniProt P08908).
T3 sequence (P08908 whole entry): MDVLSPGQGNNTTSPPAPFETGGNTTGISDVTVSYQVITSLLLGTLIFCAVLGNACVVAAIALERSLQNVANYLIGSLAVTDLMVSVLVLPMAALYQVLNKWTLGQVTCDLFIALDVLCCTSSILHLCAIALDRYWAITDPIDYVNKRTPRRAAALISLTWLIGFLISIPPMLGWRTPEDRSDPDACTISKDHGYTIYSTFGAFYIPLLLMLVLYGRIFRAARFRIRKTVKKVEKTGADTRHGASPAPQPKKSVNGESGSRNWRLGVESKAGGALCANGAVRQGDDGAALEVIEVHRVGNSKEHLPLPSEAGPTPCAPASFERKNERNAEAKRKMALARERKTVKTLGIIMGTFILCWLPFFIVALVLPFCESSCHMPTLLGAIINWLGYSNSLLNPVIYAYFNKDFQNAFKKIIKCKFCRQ
It counts as functional, cell-based.

The target of assay [6] is T4, 5-hydroxytryptamine receptor 2A (Homo sapiens, UniProt P28223). It is filed as functional, cell-based.
T4 sequence (P28223 whole entry): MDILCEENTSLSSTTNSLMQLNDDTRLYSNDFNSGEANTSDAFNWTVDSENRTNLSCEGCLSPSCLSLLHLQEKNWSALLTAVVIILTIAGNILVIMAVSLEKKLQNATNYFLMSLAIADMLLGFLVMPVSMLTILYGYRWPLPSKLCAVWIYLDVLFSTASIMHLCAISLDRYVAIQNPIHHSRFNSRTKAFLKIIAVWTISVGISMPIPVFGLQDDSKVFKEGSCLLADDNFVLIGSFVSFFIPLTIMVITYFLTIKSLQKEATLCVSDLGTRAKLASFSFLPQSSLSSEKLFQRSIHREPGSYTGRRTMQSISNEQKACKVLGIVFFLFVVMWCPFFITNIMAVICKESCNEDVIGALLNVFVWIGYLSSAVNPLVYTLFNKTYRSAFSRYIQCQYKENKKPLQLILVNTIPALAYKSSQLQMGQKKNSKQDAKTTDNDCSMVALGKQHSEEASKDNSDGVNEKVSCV
For assay [7], the target named is T4, 5-hydroxytryptamine receptor 2A. It counts as functional, cell-based. The source holds these as a separate data set.
The target in assay [8] is T5, Prostaglandin G/H synthase 1 (Rattus norvegicus, UniProt Q63921).
T5 sequence (Q63921 whole entry): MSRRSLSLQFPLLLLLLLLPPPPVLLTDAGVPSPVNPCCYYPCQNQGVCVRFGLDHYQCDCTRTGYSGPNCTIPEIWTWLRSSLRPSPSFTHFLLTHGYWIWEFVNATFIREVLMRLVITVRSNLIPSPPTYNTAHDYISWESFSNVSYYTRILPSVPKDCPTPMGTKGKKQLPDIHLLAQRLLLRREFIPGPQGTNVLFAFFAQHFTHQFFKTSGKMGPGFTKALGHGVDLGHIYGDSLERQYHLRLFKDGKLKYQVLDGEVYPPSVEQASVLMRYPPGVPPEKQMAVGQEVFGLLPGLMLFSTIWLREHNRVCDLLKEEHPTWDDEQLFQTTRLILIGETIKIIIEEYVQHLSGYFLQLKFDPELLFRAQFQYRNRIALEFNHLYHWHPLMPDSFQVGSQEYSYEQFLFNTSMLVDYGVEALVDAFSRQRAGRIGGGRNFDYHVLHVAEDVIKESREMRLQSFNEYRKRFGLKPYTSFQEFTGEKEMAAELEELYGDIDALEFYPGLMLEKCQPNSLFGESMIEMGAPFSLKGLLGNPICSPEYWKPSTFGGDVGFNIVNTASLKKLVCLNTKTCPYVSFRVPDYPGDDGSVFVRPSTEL
It is filed as functional.

The next assay deals with T6, Thromboxane A2 receptor (Homo sapiens, UniProt P21731).
T6 sequence (P21731 whole entry): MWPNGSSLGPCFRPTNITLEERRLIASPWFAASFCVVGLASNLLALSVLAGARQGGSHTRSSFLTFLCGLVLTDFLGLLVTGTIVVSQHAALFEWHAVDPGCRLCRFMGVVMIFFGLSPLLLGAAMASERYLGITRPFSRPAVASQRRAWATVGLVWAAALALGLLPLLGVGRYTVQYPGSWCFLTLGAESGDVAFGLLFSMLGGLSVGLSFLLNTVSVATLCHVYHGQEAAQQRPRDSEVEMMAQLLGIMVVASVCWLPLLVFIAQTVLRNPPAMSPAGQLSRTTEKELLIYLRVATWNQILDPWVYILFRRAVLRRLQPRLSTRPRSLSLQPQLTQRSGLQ

In assay [9] the target is cGMP-inhibited 3',5'-cyclic phosphodiesterase 3A (Homo sapiens, UniProt Q14432). It is filed as functional.
cGMP-inhibited 3',5'-cyclic phosphodiesterase 3A, sequence (Q14432 whole entry): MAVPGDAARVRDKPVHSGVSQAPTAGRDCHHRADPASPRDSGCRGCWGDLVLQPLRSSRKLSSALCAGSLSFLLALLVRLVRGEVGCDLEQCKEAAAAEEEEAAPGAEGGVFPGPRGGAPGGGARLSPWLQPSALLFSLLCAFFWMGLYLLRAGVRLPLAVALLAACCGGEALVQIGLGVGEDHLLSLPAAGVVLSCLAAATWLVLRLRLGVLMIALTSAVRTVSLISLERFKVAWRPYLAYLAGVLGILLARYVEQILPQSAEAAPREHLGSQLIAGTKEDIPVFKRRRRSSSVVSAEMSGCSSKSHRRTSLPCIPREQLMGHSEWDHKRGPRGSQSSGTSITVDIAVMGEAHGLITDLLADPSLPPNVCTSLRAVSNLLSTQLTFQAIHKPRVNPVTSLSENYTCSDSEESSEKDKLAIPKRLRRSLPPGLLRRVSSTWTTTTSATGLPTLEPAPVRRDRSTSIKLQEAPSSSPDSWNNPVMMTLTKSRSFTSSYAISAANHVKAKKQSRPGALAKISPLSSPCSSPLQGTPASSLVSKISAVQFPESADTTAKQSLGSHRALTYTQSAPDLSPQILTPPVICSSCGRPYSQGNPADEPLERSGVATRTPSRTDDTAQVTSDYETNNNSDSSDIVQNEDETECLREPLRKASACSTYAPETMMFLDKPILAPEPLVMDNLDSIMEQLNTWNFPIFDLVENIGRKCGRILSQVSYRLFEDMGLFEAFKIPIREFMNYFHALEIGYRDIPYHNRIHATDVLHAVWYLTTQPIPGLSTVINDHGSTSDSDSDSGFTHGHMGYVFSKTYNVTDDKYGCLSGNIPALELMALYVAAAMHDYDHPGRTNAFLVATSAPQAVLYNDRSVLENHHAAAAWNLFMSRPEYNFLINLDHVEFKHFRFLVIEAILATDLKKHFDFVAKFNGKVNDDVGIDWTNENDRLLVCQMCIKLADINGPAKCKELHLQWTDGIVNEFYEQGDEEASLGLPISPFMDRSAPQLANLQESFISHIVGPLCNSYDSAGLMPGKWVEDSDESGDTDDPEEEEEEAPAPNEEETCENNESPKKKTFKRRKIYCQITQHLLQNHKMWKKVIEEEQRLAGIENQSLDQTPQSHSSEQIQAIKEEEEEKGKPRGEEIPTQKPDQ
The next assay addresses Histamine H3 receptor (Homo sapiens, UniProt Q9Y5N1).

This note sets out measurements from ChEMBL document CHEMBL5291721, “A preclinical secondary pharmacology resource illuminates target-adverse drug reaction associations of marketed drugs” (Nat Commun, 2023).

Where only a bound is given, the exact number is not on record here.

As usually defined, the AC50 is the midpoint of the concentration-response curve, whichever way the signal moves. A lower AC50 goes with greater potency.
Also: assay procedure not described here.

Histamine H3 receptor, sequence (Q9Y5N1 whole entry): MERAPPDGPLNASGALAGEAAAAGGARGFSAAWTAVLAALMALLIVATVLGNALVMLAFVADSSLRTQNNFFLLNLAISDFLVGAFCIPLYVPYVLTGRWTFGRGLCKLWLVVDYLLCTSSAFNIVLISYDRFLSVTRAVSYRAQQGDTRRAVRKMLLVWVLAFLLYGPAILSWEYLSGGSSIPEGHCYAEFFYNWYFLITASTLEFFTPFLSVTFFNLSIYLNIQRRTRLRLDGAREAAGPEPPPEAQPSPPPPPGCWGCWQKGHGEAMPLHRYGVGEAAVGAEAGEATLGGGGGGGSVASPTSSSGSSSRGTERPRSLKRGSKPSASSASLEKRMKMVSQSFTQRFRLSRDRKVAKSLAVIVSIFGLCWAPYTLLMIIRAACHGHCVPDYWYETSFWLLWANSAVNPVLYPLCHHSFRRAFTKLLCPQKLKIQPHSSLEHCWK
Growth hormone secretagogue receptor type 1, sequence (Q92847 whole entry): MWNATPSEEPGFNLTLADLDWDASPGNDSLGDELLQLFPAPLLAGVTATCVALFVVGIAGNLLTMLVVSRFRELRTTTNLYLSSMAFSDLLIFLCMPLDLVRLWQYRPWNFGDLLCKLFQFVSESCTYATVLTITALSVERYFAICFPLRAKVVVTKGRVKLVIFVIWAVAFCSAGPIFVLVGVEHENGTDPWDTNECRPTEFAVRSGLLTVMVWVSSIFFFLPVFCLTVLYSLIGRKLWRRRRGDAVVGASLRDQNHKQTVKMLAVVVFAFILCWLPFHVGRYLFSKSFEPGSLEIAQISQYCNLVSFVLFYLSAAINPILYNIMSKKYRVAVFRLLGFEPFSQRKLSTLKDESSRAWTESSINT
Vasopressin V2 receptor, sequence (P30518 whole entry): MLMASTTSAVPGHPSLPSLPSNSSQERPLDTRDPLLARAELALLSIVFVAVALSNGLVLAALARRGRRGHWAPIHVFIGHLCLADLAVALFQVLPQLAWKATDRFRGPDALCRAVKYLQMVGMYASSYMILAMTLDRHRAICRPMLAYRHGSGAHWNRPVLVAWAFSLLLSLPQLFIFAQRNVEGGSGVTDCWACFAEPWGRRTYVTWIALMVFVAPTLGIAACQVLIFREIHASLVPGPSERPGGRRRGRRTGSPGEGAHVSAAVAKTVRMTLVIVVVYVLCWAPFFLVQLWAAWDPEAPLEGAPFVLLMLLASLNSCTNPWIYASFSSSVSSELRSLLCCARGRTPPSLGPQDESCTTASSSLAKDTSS

As for `O=C(CCCN1CCC(n2c(O)nc3ccccc32)CC1)c1ccc(F)cc1` [BENPERIDOL], the AC50 is 19.2 µM in assay [1]; 8.5 µM in assay [2]; > 30 µM at Vasopressin V2 receptor; 2.64 µM in assay [3]; 17 µM in assay [4]; > 30 µM in [5]. Further, the AC50 was > 30 µM in [6]; 0.12 µM in assay [7]; > 30 µM in assay [8]; > 30 µM on Thromboxane A2 receptor; > 30 µM in assay [9]; 18 µM at Histamine H3 receptor.

As for `CCN(CC)C(=O)C1CN2CCc3cc(OC)c(OC)cc3C2CC1OC(C)=O` (stereo not given) [BENZQUINAMIDE], the AC50 is 0.735 µM in [1]; > 30 µM in assay [2]; > 30 µM at Vasopressin V2 receptor; > 30 µM in assay [3]; > 30 µM in assay [4]; > 30 µM in [5]. For the same molecule, the AC50 in assay [6] is > 30 µM; in [7] it was 1.57 µM; in [8] it was 2.72 µM; on Thromboxane A2 receptor, > 10 µM; in assay [9], > 30 µM; at Histamine H3 receptor it was > 30 µM.

Regarding `CCC(=O)OCC(=O)[C@@]1(OC(=O)CC)[C@@H](C)C[C@H]2[C@@H]3CCC4=CC(=O)C=C[C@]4(C)[C@@]3(F)[C@@H](O)C[C@@]21C` [BETAMETHASONE DIPROPIONATE], the AC50 (in [1]; in [2]; at Vasopressin V2 receptor; in assay [3]; in assay [4]; in [5]) was > 30 µM throughout. Further, the AC50 is > 30 µM in assay [6]; > 30 µM in assay [7]; > 10 µM in assay [8]; > 30 µM at Thromboxane A2 receptor; > 30 µM in assay [9]; > 30 µM on Histamine H3 receptor.

With `CCOC(=O)NNc1ccc(N(CC)CC(C)O)nn1` (stereo not given) [CADRALAZINE], the AC50 (in assay [1]; in [2]; at Vasopressin V2 receptor; in [3]; in assay [4]; in assay [5]) was > 30 µM each time. In addition, the AC50 in assay [6] is > 30 µM; in [7] it was > 30 µM; in [8], 0.5 µM; on Thromboxane A2 receptor, > 30 µM; in assay [9], > 30 µM; at Histamine H3 receptor it was > 30 µM.

As to `CCCC(C)(COC(N)=O)COC(=O)NC(C)C` (stereo not given) [CARISOPRODOL], the AC50 was > 10 µM in assay [1]; > 10 µM in assay [2]; > 30 µM on Vasopressin V2 receptor; > 10 µM in assay [3]; > 30 µM in [4]; > 10 µM in assay [5]. The AC50 was > 30 µM in assay [6]; > 30 µM in assay [7]; > 30 µM in assay [8]; > 30 µM on Thromboxane A2 receptor; > 30 µM in assay [9]; > 10 µM on Histamine H3 receptor.

Take `CCC(C)(Oc1ccc(C2(c3ccc(OC(C)(CC)C(=O)O)cc3)CCCCC2)cc1)C(=O)O` (stereo not given) [CLINOFIBRATE]: the AC50 (in assay [1]; in assay [2]; on Vasopressin V2 receptor; in assay [3]; in assay [4]; in assay [5]) was > 30 µM each time. Further, the AC50 (in assay [6]; in [7]; in assay [8]; at Thromboxane A2 receptor; in assay [9]; on Histamine H3 receptor) was > 30 µM in each case.

Regarding `CCCCC[C@H](O)/C=C/[C@H]1[C@H](O)CC(=O)[C@@H]1C/C=C\CCCC(=O)O` [DINOPROSTONE], the AC50 (in assay [1]; in [2]; on Vasopressin V2 receptor; in assay [3]; in assay [4]; in assay [5]) was > 30 µM each time. Besides, the AC50 is > 30 µM in assay [6]; > 30 µM in assay [7]; 15 µM in assay [8]; 3.5 µM on Thromboxane A2 receptor; > 30 µM in [9]; > 30 µM at Histamine H3 receptor.

In the case of `CC(C)c1cc2c(cc1S(=O)(=O)O)[C@@]1(C)CCC[C@@](C)(C(=O)O)[C@@H]1CC2` [ECABET], the AC50 (in assay [1]; in [2]; on Vasopressin V2 receptor; in assay [3]; in assay [4]; in assay [5]) was > 30 µM in each case. In addition, the AC50 (in [6]; in [7]; in [8]; at Thromboxane A2 receptor; in [9]; on Histamine H3 receptor) was > 30 µM in each case.

For the molecule `COC(=O)N[C@@H](C)CNc1nccc(-c2cn(C(C)C)nc2-c2cc(Cl)cc(NS(C)(=O)=O)c2F)n1` [ENCORAFENIB], the AC50 (in [1]; in assay [2]; at Vasopressin V2 receptor; in assay [3]; in [4]; in assay [5]) was > 30 µM throughout. The AC50 in [6] was > 30 µM; in assay [7] it was > 30 µM; in assay [8] it was > 30 µM; at Thromboxane A2 receptor, > 30 µM; in assay [9] it was 25 µM; at Histamine H3 receptor, > 30 µM.

With `CCCN(CC)C(CC)C(=O)Nc1c(C)cccc1C` (stereo not given) [ETIDOCAINE], the AC50 (in [1]; in assay [2]; at Vasopressin V2 receptor; in assay [3]; in assay [4]; in assay [5]) was > 30 µM in each case. Moreover, the AC50 (in assay [6]; in assay [7]; in assay [8]; on Thromboxane A2 receptor; in assay [9]; on Histamine H3 receptor) was > 30 µM each time.
